Assay results reported in PMC8446577, “Novel cold-adapted raw-starch digesting α-amylases from Eisenia fetida: Gene cloning, expression, and characterization” (Biotechnology Reports, 2021).

Molecular target: T1, rEf-Amy I (Eisenia fetida, UniProt A0A173N065)
T1 construct: gene alpha-amylase; mature enzyme without signal peptide, secreted from Pichia pastoris GS115 (pPICZalphaA, codon-optimised gene), HisTrap purified, 57 kDa by SDS-PAGE; precursor 510 residues; borders from printed domain limits E18-V510
T1 sequence (A0A173N065 18-510): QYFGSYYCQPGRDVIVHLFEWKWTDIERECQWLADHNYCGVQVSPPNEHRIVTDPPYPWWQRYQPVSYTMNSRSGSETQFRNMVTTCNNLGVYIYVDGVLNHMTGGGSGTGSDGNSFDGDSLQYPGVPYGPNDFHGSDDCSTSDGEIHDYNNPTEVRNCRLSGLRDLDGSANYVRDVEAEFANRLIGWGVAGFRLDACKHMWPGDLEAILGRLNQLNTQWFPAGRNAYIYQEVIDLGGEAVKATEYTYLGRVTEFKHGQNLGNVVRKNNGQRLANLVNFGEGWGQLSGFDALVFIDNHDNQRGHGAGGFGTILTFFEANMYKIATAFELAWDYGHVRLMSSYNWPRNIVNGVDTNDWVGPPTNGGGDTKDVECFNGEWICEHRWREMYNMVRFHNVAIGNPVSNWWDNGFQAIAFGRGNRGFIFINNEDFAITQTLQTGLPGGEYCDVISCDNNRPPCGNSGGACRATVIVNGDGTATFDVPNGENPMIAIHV
Assay: HPLC (RI detection) of hydrolysis products
Assay type: biochemical
Settings: 5 mM substrate, 50 mM sodium acetate pH 5.5, 37 °C

Compound | HPLC (RI detection) of hydrolysis products
OC[C@H]1O[C@H](O[C@H]2[C@H](O)[C@@H](O)[C@@H](O[C@H]3[C@H](O)[C@@H](O)[C@@H](O[C@H]4[C@H](O)[C@@H](O)[C@@H](O[C@H]5[C@H](O)[C@@H](O)C(O)O[C@@H]5CO)O[C@@H]4CO)O[C@@H]3CO)O[C@@H]2CO)[C@H](O)[C@@H](O)[C@@H]1O (some centres unmarked) [maltopentaose] | In the case of Ef-Amy I, the major hydrolysis products from Mal5 were Mal and Mal3
OC[C@H]1O[C@H](O[C@H]2[C@H](O)[C@@H](O)[C@@H](O[C@H]3[C@H](O)[C@@H](O)[C@@H](O[C@H]4[C@H](O)[C@@H](O)C(O)O[C@@H]4CO)O[C@@H]3CO)O[C@@H]2CO)[C@H](O)[C@@H](O)[C@@H]1O (some centres unmarked) [maltotetraose] | from Mal4 was Mal (Fig. 5B)
